# Assay results taken from patent US10941169B2, “Crystal of cyclic phosphonic acid sodium salt and method for manufacturing same” (OTSUKA CHEMICAL CO., LTD., priority 2014, dated 2021).
# Counter-ions that a name gives are not always drawn.
# Key:
# [1] = Storage stability, hermetically sealed, −20° C. and 35° C. for 3 months; assay type: physicochemical; conditions: stored at −20° C. and 35° C. for 3 months
# Excerpt: The crystal of 2ccPA of the present invention is excellent in storage stability.
# [2] = Stability test at 35° C. (storage, weekly LC purity analysis); assay type: physicochemical; conditions: stored at 35° C.; for purity in stability test, number of days 0: day 0; for purity in stability test, number of days 7: day 7; for purity in stability test, number of days 14: day 14; for purity in stability test, number of days 21: day 21; for purity in stability test, number of days 28: day 28; for purity in stability test, number of days 56: day 56; for stability (assessment in words): results of Table 1
# Experimental: As the amorphous of 2ccPA above, 300 mg of 2ccPA (obtained in Example 3) dissolved in 5 mL of water and freeze-dried was used.
# In the stability test, about 15 mg each of the 2ccPA crystal of the present invention, the 2ccPA of a formula described in documents, and an amorphous of 2ccPA were weighed, and individually diluted with 5 mL of acetonitrile/water (1/1). Then, 5 μL each of the diluted solutions was analyzed weekly using the LC-2010CHT (Shimazu Corporation).
# [3] = listed as 2ccPA crystal obtained by the production method of the present invention, sodium salt
Compound,"storage stability (decrease in purity, decomposition) [1]","purity in stability test, number of days 0 ([2]; sodium salt) [%]","purity in stability test, number of days 7 ([2]; sodium salt) [%]","purity in stability test, number of days 14 ([2]; sodium salt) [%]","purity in stability test, number of days 21 ([2]; sodium salt) [%]","purity in stability test, number of days 28 ([2]; sodium salt) [%]","purity in stability test, number of days 42 ([2]; day 42) [%]","purity in stability test, number of days 56 [2, 3] [%]","purity in stability test, number of days 56 ([2]; sodium salt) [%]","stability (assessment in words) [2, 3]","purity in stability test, number of days 0 [2] [%]","purity in stability test, number of days 7 [2] [%]","purity in stability test, number of days 14 [2] [%]","purity in stability test, number of days 21 [2] [%]","purity in stability test, number of days 28 [2] [%]",stability (assessment in words) [2]
"CCCCCCCC/C=C\CCCCCCCC(=O)OCC1COP(=O)([O-])C1.[Na+] (stereo not shown) [2ccPA crystal of the present invention, 4-[(Z)-octadec-9-enoyloxymethyl]-2-oxo-1,2-λ^5-oxaphosphorane-2-olate sodium salt]",little decrease in purity,99.561,99.605,99.576,99.631,99.626,99.593,99.493,99.493,excellent stability,,,,,,
"CCCCCCCC/C=C\CCCCCCCC(=O)OCC1COP(=O)(O)C1 (stereo not shown) [A formula described in documents, sodium salt of 9-octadecenoic acid (9Z)-(2-hydroxy-2-oxo-2λ^5-1,2-oxaphosphoran-4-yl)methyl ester]",,,,,,,,,,,67.934,66.665,67.517,62.77,59.841,unstable
"CCCCCCCC/C=C\CCCCCCCC(=O)OCC1COP(=O)([O-])C1.[Na+] (stereo not shown) [Amorphous of 2ccPA, sodium salt of 9-octadecenoic acid (9Z)-(2-hydroxy-2-oxo-2λ^5-1,2-oxaphosphoran-4-yl)methyl ester]",,,,,,,,,,,99.599,83.363,45.02,34.738,27.077,unsatisfactory
